Results on four molecules are retold here after patent publication US20200222462A1, “METHODS OF TREATMENT USING DECITABINE AND A CD123-TARGETED THERAPY” (priority 2018, published 2020).

One data set relates to AML cells. The data set can be described thus: CD123 expression in AML cells quantitated by fluorescence-activated cell sorting. In kind it is cell-based.
Data set [1] concerns AML cell lines Kasumi-1, SKM-1 and MOLM-13. Put plainly: Live cell counts by flow cytometry (DAPI exclusion), AML cell lines. In kind it is cell-based. As to conditions: for cell numbers (dose dependent decline): day 3, 0.46-3000 nM dosed at 0, 24 and 48 hours. How it is done:
(§1) Number of live cells was determined by excluding DAPI+ dead cells in each well. Average of triplicates is presented on the graph.
(§2) SKM1, Kasumi-1 and MOLM-13 cell lines were maintained in 80% RPMI 1640+20% FBS according to manufacturer's instructions. Logarithmically growing SKM1, Kasumi-1 and MOLM-13 cell lines were plated at 7,500 cells per well in 384 well microtiter plates and treated with drugs in triplicate using an acoustic liquid handler using protocol (P.SOP.007.02_Compound Addition Using GBG).
(§3) The following compounds were serially dosed in 24-hour intervals using an acoustic liquid handler. Decitabine, 5-azacytidine and guadecitabine were dosed at 3000, 1000, 333.33, 111.11, 37.04, 12.35, 4.12, 1.37 and 0.46 nM at 0, 24 and 48 hours. In addition, guadecitabine was dosed at 3000, 1000, 333.33, 111.11, 37.04, 12.35, 4.12, 1.37 and 0.46 nM at 0 hours without serial dosing (single dose). The dose range of the compounds was determined by back calculating the clinical dose and corresponding to a plasma concentration at 1.5 hours after standard dosing. The 1000 nM concentration of decitabine is based on the clinical dose of 20 mg/m^2, 1-hour intravenous infusion, one time per day for five consecutive days every 4 weeks and the maximum plasma concentration after standard dosing (1.15 micromolar). Decitabine doses in the study were selected above and below this dose. The 1000 nM concentration of 5-azacytidine is based on the clinical dose of 75 mg/m^2/day for 7 days every 28 days and the plasma concentration at 1.5 hours after standard dosing. 5-Azacytidine doses in the study were selected above and below this dose. Guadecitabine regimen is 60 mg/m^2 given subcutaneously daily on Days 1-5 in 28-day cycles (delayed as needed to allow blood count recovery). The clinically relevant guadecitabine dose is 211 nM. Cells were stained at day 0, day 3 and day 7 following cell plating samples were stained with the antibody panel details below and readout with an lntellicyt iQue Plus flow cytometer.
(§4) Cells were stained using Notable labs no wash protocol number (P.SOP.009.01_Screen Readout Automated), briefly, antibodies are added to cells with an acoustic liquid handler, incubated at 4° C. for 20 minutes and readout with an Intellicyt iQue Plus flow cytometer. Staining Panel for Cell lines: DAPI, CD123, PDL1, CD34, CD33, CD15, CD38. Live cells were gated using FSC/SSC and DAPI exclusion using FlowJo analysis software (BeckmanFLow), and then further defined by cell surface marker expression. Absolute counts or Mean Fluorescence Intensity from triplicate wells were averaged and fold change was calculated with respect to a vehicle-only (DMSO) control.

Data set [2] has as its system CD34+CD38+ Multipotent progenitors (MMPs) and CD34+CD38− Hematopoietic Stem Cells (HSCs). The data set can be described thus: Live cell counts by flow cytometry, normal donor CD34+ bone marrow cells. As to conditions: for cell counts (dose dependent decline): primary MMPs and HSCs, 0.46-3000 nM. As to the method: as §1
CD34 enriched bone marrow was purchase from AllCells. Fresh (never frozen) cells were plated at 15,000 cells per well in 384 well microtiter plates and treated with drugs in triplicate using an acoustic liquid handler. The following compounds were dosed serial in 24-hour intervals: decitabine, guadecitabine and 5-azacytidine were dosed at 3000, 1000, 333.33, 111.11, 37.04, 12.35, 4.12, 1.37 and 0.46 nM at 0, 24 and 48 hours. In addition, auadecitabine was dosed at 3000, 1000, 333.33, 111.11, 37.04, 12.35, 4.12, 1.37 and 0.46 nM at 0 hours without serial dosing (single dose). Cells were stained at day 0 and day 7 following cell plating samples were stained with the antibody panel details below and readout with an Intellicyt iQue Plus flow cytometer. Cells were stained using Notable labs staining protocol number (P.SOP.009.01_Screen Readout Automated). Staining Panel for Healthy CD34+ Bone Marrow: DAPI, CD45, CD3, CD19, CD16, CD14, CD38, CD33, CD34, CD90, CD123, CD274. Live cells were gated using FSC/SSC and DAPI exclusion using FlowJo analysis software (Beckman Flow), and then further defined by cell surface marker expression. Absolute counts from triplicate wells were averaged and normalized to a vehicle-only (DMSO) control.

In another data set the test system is SKM1 cell line. Put plainly: CD123 MFI by flow cytometry, SKM1. In kind it is cell-based. Particulars: for CD123 MFI (dose dependent increase): SKM1, 0.46-3000 nM, day 7; for CD123 expression at clinically relevant dose (FIG. 2c): 1000 nM. As to the method: (§5) (c) Fold change in CD123 MFI at 1000 nM clinically relevant decitabine dose (P values are calculated by student Test). Cells are gated on live cells. Blast cells in AML cell lines were defined as CD33 or CD34 positive. Primary HSCs were defined as CD45^dimSSC^lowCD34^highCD38− and multipotent progenitors were defined as CD34^highCD38+, data represents mean of four normal donors and the error bars represent Standard deviation. Fold change in CD123 Mean Fluorescence Intensity (MFI) with respect to DMSO treated cells is presented.
as §2, §3, §4

In another data set the test system is Kasumi-1. Put plainly: CD123 MFI by flow cytometry, Kasumi-1. In kind it is cell-based. Particulars: 0.46-3000 nM, day 7. As to the method: as §5
(§6) SKM1, Kasumi-1 and MOLM-13 cell lines were maintained in 80% RPMI 1640+20% FBS according to manufacturer's instructions. […]
(§7) The following compounds were serially dosed in 24-hour intervals using an acoustic liquid handler. […] The dose range of the compounds was determined by back calculating the clinical dose and corresponding to a plasma concentration at 1.5 hours after standard dosing. […] Cells were stained at day 0, day 3 and day 7 following cell plating samples were stained with the antibody panel details below and readout with an lntellicyt iQue Plus flow cytometer.
(§8) Cells were stained using Notable labs no wash protocol number (P.SOP.009.01_Screen Readout Automated), briefly, antibodies are added to cells with an acoustic liquid handler, incubated at 4° C. for 20 minutes and readout with an Intellicyt iQue Plus flow cytometer. […]

The next data set relates to MOLM-13. The data set can be described thus: CD123 MFI by flow cytometry, MOLM-13. As to conditions: 0.46-3000 nM, day 7. In kind it is cell-based. How it is done: as §5, §6, §7, §8
Data set [3] concerns primary CD34+ Bone marrow cells. The data set can be described thus: CD123 MFI by flow cytometry, primary CD34+ bone marrow cells (overall). In kind it is cell-based. Particulars: for CD123 MFI / expression in primary bone marrow cells: four normal donors, dose range. As to the method:
as §5
(§9) CD34 enriched bone marrow was purchase from AllCells.

Data set [4] deals with PD-L1 expression in AML cell lines and primary bone marrow HSCs/MMPs. The data set can be described thus: PD-L1 expression by flow cytometry, AML cell lines and primary bone marrow cells. In kind it is cell-based. Particulars: any dose; all cell lines and primary bone marrow HSCs or MMPs.
From the text: Cells are gated on live cells. Blast cells in AML cell lines were defined as CD33 or CD34 positive. Primary HSCs were defined as CD45^dimSSC^lowCD34^highCD38− and multipotent progenitors were defined as CD34^highCD38+, data represents mean of four normal donors and the error bars represent Standard deviation.
as §2
as §7, with “handler. Decitabine, 5-azacytidine and guadecitabine were dosed at 3000, 1000, 333.33, 111.11, 37.04, 12.35, 4.12, 1.37 and 0.46 nM at 0, 24 and 48 hours.” for “handler.”
Cells were stained using Notable labs no wash protocol number (P.SOP.009.01_Screen Readout Automated), briefly, antibodies are added to cells with an acoustic liquid handler, incubated at 4° C. for 20 minutes and readout with an Intellicyt iQue Plus flow cytometer. […] Absolute counts or Mean Fluorescence Intensity from triplicate wells were averaged and fold change was calculated with respect to a vehicle-only (DMSO) control.
CD34 enriched bone marrow was purchase from AllCells. […] Cells were stained at day 0 and day 7 following cell plating samples were stained with the antibody panel details below and readout with an Intellicyt iQue Plus flow cytometer. Cells were stained using Notable labs staining protocol number (P.SOP.009.01_Screen Readout Automated). […]

For data set [5], the system named is Hematopoietic stem cells (HSCs). The data set can be described thus: CD123 expression by flow cytometry, primary hematopoietic stem cells. In kind it is cell-based. As to conditions: for CD123 expression at clinically relevant dose (FIG. 2c): HSC; for increase in CD123 expression vs DMSO: HSCs.
From the text: (§10) […] Cells are gated on live cells. Blast cells in AML cell lines were defined as CD33 or CD34 positive. Primary HSCs were defined as CD45^dimSSC^lowCD34^highCD38− and multipotent progenitors were defined as CD34^highCD38+, data represents mean of four normal donors and the error bars represent Standard deviation. Fold change in CD123 Mean Fluorescence Intensity (MFI) with respect to DMSO treated cells is presented.
as §9

The next data set deals with CD38+CD34+ MMPs. Put plainly: CD123 expression by flow cytometry, primary multipotent progenitors. It counts as cell-based. Particulars: for average increase in CD123 expression vs DMSO / CD123 expression at clinically relevant dose (FIG. 2c): MMPs.
From the text: as §10, §9

For a further data set, the system named is AML patients. How it is done: Fifteen AML patients treated in our ongoing first in human phase 1 clinical trial (NCT0262355) evaluating CD123CAR T cells in patients with relapsed or refractory AML or blastic plasmacytoid dendritic cell neoplasm (BPDCN) received lymphodepletion prior to CAR T cell infusion on day 0. All received fludarabine (25-30 mg/m2/day) and cyclophosphamide (300-500 mg/m2/day). Both were administered daily from days −5 to −3. Eight also received decitabine (20 mg/m2/day) given daily for 5 days from days −7 to −3 or daily for 3 days from days −5 to −3.

Another data set deals with AML blasts. As to conditions: in vitro; reported; cited from earlier work.
For data set [6] the following is noted: clinical dose 20 mg/m^2, 1-hour intravenous infusion, once per day for five consecutive days every 4 weeks; cited from earlier work.
The mark [7] stands for this setting: 5 day treatment, decitabine p<0.001, azacitidine p<0.05.

On to `Nc1ncn([C@@H]2O[C@H](CO)[C@@H](O)[C@H]2O)c(=O)n1` [5-azacytidine], for which the “CD123 expression in AML cells” value in the data set with AML cells (setting [7]) is “significant increase”. The “cell numbers (dose dependent decline)” value in data set [1] is “dose dependent decline”. In [2], the “cell counts (dose dependent decline)” value is given as “dose dependent decline”. Also, the “CD123 MFI (dose dependent increase)” value in the data set on SKM1 cell line, with Kasumi-1 and in the data set with MOLM-13 was “did not impact” in each case. Further, the “CD123 MFI / expression in primary bone marrow cells” value in [3] was “highly variable”. In [4], the PD-L1 expression result was “no impact”.

As for `Nc1ncn([C@H]2C[C@H](O)[C@@H](CO)O2)c(=O)n1` [decitabine], the “CD123 expression in AML cells” value in the data set on AML cells (3 day treatment, p<0.001) is recorded as “significant increase”; with AML cells (setting [7]), “significant increase”. Further, the “cell numbers (dose dependent decline)” value in data set [1] is “dose dependent decline”. The “cell death at high dose” value in data set [2] (3000 nM, FIG. 1b) is “cell death”. For the same molecule, the “cell counts (dose dependent decline)” value in data set [2] is “dose dependent decline”. Moreover, the “CD123 expression at clinically relevant dose (FIG. 2c)” value (with SKM1 cell line; in data set [5] (1000 nM); with CD38+CD34+ MMPs (1000 nM)) was “significantly enhanced” throughout. Moreover, the figures for the “CD123 MFI (dose dependent increase)” value in the data set on SKM1 cell line and in the data set on SKM1 cell line (listed as Decitabine) were “upregulates” and “dose dependent increase”, respectively. The “increase in CD123 expression vs DMSO” value in [5] (111.11 nM) came to 1.3 fold; in data set [5] (333.33 nM), 1.6 fold; in data set [5] (1000 nM), 1.4 fold. In addition, the “average increase in CD123 expression vs DMSO” value stood at 1.4 fold in the data set on CD38+CD34+ MMPs (111.11 nM), 1.4 fold in the data set with CD38+CD34+ MMPs (333.33 nM) and 1.3 fold with CD38+CD34+ MMPs (1000 nM). Moreover, the “CD123 MFI with respect to DMSO treated cells” value in data set [3] (3000 nM, FIG. 2b) is recorded as “no change”. The “CD123 MFI in primary CD34+ bone marrow cells” value in data set [3] (clinically relevant dose of 1000 nM) is reported as “increase”. Moreover, the “CD123 MFI / expression in primary bone marrow cells” value in data set [3] is given as “upregulates”. Further, the PD-L1 expression result in [4] is recorded as “no impact”. Moreover, the “treatment related adverse events in decitabine treated group” value with AML patients (8 patients with decitabine vs 7 without) was “not observed increased treatment related adverse events”. Besides, the “tolerability / dose limiting toxicities” value in the data set on AML patients (AML patients, fludarabine and cyclophosphamide lymphodepletion, eight also decitabine 20 mg/m2/day, CAR T infusion day 0) is reported as “well tolerated”. Moreover, the “CD123 expression in AML blasts” value in the data set on AML blasts is “upregulate”. Also, in data set [6], the “maximum plasma concentration after standard dosing” value was 1.15 µM.

With `CN[C@@H]1C[C@H]2O[C@@](C)([C@@H]1OC)n1c3ccccc3c3c4c(c5c6ccccc6n2c5c31)C(=O)NC4` [Staurosporine], the viable cells entry is “significant reductions” in data set [1] (positive control for cell death, all cell line groups) and “significant reductions” in data set [2] (positive control for cell death, primary cell groups).

With `Nc1ncn([C@H]2C[C@H](OP(=O)(O)OC[C@H]3O[C@@H](n4cnc5c(=O)[nH]c(N)nc54)C[C@@H]3O)[C@@H](CO)O2)c(=O)n1` [guadecitabine], the “cell numbers (dose dependent decline)” value in data set [1] is given as “dose dependent decline”. Moreover, the “CD123 expression at clinically relevant dose (FIG. 2c)” value (with SKM1 cell line; in data set [5] (1000 nM); with CD38+CD34+ MMPs (1000 nM)) was “significantly enhanced” throughout. In the data set with SKM1 cell line, the “CD123 MFI (dose dependent increase)” value is listed as “increase in CD123 MFI in a dose dependent manner”. For the same molecule, the “change in CD123 expression” value in [5] (normal bone marrow HSCs, regardless of the dose) is given as “did not show any change”; in the data set on CD38+CD34+ MMPs (normal bone marrow MMPs, regardless of the dose), “did not show any change”. For the same molecule, in data set [4], the PD-L1 expression result is “no impact”.
